In a melting point compilation (Tetko et al.; mined from patent text by program, amines drawn as free bases though some values may be those of a salt) one finds melting point data, which are given here for 62 molecules.

The structures appear in SMILES notation.

Regarding `COc1ccc2c(C(=O)Nc3ccc(CN4CCN(C)CC4)c(C(F)(F)F)c3)nsc2c1`, the melting point is 156 °C.

`COC(=O)c1ccc(Cc2cn(C)c3ccc(NC(=O)OC4CCCC4)cc23)c(OC)c1` gave a melting point of 134 to 135 °C.

`Cc1[nH]n(Cc2ccc([N+](=O)[O-])cc2)c2nc(-c3ccncc3)nc(=O)c1-2`: the melting point fell in the range of 275 to 281 °C.

`O=C(CCC#Cc1cccc(CF)n1)Nc1ccc(F)cc1` returned a melting point of 110 °C.

Turning to `CCN(CC)CCNC(=O)c1cccc2c(=O)c(C)c(-c3ccc(OC)cc3)oc12`, the melting point lay in the range of 126 to 127 °C.

For the molecule `Cc1oncc1C(=O)N1CCCCC1`, the melting point fell in the range of 40 to 43 °C.

`N#Cc1c(CCl)[nH]c(=O)[nH]c1=O` registered a melting point of 229 °C.

For `CC=CC(=O)Oc1ccc(Nc2ccccc2)cc1`, the melting point fell in the range of 73 to 76 °C.

Consider `Cc1cccc(-c2nc3ccccn3c2-c2ccnc(-c3ccc(CN4CCOCC4)cc3)c2)n1`, for which the melting point came out at 156 °C.

`CS(=O)(=O)Nc1ccc(C#Cc2cnn3c(C(F)(F)F)cc(-c4ccc(C(F)(F)F)cc4)nc23)cn1` displayed a melting point of 261 to 263 °C.

Regarding `CN(C)Cc1c[nH]c2cc(Cl)ccc12`, the melting point was 130 to 133 °C.

The molecule `COc1ccc(N2CCN(CCC(O)COc3ccc(F)cc3)CC2)cc1` (configuration not stated) yielded a melting point of 78 to 80 °C.

As to `COc1ccc(-c2snnc2SC)cc1`, the melting point lay in the range of 60.5 to 61 °C.

Molecule `O=C1CCC(N2Cc3c(OCc4ccc(CN5CCN(CC(F)(F)F)CC5)cc4)cccc3C2=O)C(=O)N1` (configuration not stated) returned a melting point of 133 to 135 °C.

Molecule `Cc1ccc2cccc(OCC(=O)c3ccccc3)c2n1` returned a melting point of 70 to 71 °C.

In turn, `CC1OC(=O)Nc2ccc(-c3cccc(F)c3)cc21` (configuration not stated) had a melting point of 160 to 161 °C.

The molecule `CCOC(=O)CC1C(=O)N(CC(C)(C)C)c2ccc(Cl)cc2N(c2ccccc2Cl)C1=O` (configuration not stated) displayed a melting point of 152 to 153 °C.

Regarding `CNCC1Cc2cc(-c3ccc(F)cc3)cc(F)c2O1` (configuration not stated), the melting point was above 250 °C.

The molecule `Cc1c(CO)c(CO)c2sc3ccccc3n12` had a melting point of 138 to 139 °C.

The molecule `CN(C)C(=O)c1cc(Cl)ccc1N` came in with a melting point of 97 to 98 °C.

With `COC(=O)CC1Cc2ccc(O)cc2NC1=O` (configuration not stated), the melting point is 178 to 180 °C.

For the molecule `COc1ccc(CCCC(CCc2ccc(OC)cc2)C(=O)O)cc1` (configuration not stated), the melting point lay in the range of 91 to 94 °C.

On to `C[C@H](C#Cc1ccc(CCc2ccc(F)cc2)s1)N(O)C(N)=O`, for which the melting point was in the range of 126 to 128 °C.

Molecule `CCC1(c2ccncc2)CCC(=O)NC1=O` (configuration not stated) displayed a melting point of 134 to 136 °C.

The molecule `CCOC(=O)CCCN1CCN(C2=Nc3ccccc3Oc3ccc(Cl)cc32)CC1` yielded a melting point of 86 to 87 °C.

In the case of `O=C(O)c1cccc2c1CCc1ccccc1C2=O`, the melting point was in the range of 188 to 189 °C.

Consider `COC1c2sccc2C(=O)c2ccccc2C1Br` (configuration not stated), for which the melting point was 103 to 106 °C.

`CC(O)(C(=O)Nc1ccc(S(=O)(=O)N(c2ccccc2)c2ccccc2)cc1)C(F)(F)F` (configuration not stated) registered a melting point of 217 to 220 °C.

The molecule `COc1cc(C2CCN(C[C@@H](C)O)CC2)ccc1Nc1ncc2ccc(-c3cc(Cl)ccc3OC)n2n1` came in with a melting point of 94 to 108 °C.

`Cc1cc2c(cc1C)-n1ccnc1C=C(c1ccc(-n3c(C)nc4cnccc43)cc1)N2` displayed a melting point of 193 to 195 °C.

Molecule `CS(=O)c1cc(CCC(=O)O)nc(-c2nc(=O)c3ccccc3s2)c1` (configuration not stated) yielded a melting point of 266 °C.

As to `O=c1[nH]c2cc(Cl)ccc2c(O)c1-c1cccc(I)c1`, the melting point was above 350 °C.

`O=C(O)c1ccc(C(=O)c2ccc(Br)cc2)cc1` returned a melting point of 270 to 271 °C.

`COC(=O)c1ccccc1-c1cnc(-c2cccc(C(F)(F)F)c2)o1` displayed a melting point of 84.5 to 86 °C.

As to `COc1cc(OC)cc(C(Cc2ccc(OC)c(OC)c2)=NNS(=O)(=O)c2ccc(C)cc2)c1`, the melting point was in the range of 132 to 133 °C.

In turn, `Cc1cccc(C)c1N1C(=N)C(C)N(c2c(C)cccc2C)C1C(=O)OCc1ccc(Cl)cc1` (configuration not stated) had a melting point of 140 to 142 °C.

Regarding `CCn1ncc2c1ncc1c(N3CCOCC3)nc3cc(C)nn3c12`, the melting point lay within 179 to 180 °C.

The molecule `CCCCc1nc2c(N)nc3cccnc3c2n1CCCCNC(=O)c1ccc(C(OCCN(C)C)c2ccccc2)cc1` (configuration not stated) registered a melting point of 105 to 108 °C.

With `Cc1nsc(OCC(F)(F)F)c1S(=O)(=O)NC(C)(C)C`, the melting point is 87 to 90 °C.

For `O=C(Nc1cccc2c(=O)cc(C(=O)O)oc12)c1ccc2c(c1)CC(COCc1ccccc1)O2` (configuration not stated), the melting point was 184 to 188 °C.

On to `CC(C)(C)OC(=O)N1CCN(c2ccc(Nc3nc(N)c(C(=O)c4c(Cl)cccc4Cl)s3)cc2)CC1`, for which the melting point is 165 to 167 °C.

Consider `Cc1c(C=NO)c2ccccc2n1-c1ccc(O)c(F)c1`, for which the melting point was 182 to 184 °C.

As for `C=CCOc1ccc2c(c1)Oc1cc(O)ccc1C21OC(=O)c2ccccc21` (configuration not stated), the melting point turned out to be 204 °C.

`NC(Cc1ccc(O)c(O)c1)P(O)O` (configuration not stated) yielded a melting point of 237 to 238 °C.

On to `CNC(=O)CCC(=O)c1c(O)cccc1OC`, for which the melting point turned out to be 125 °C.

For `Cc1ccc(OCCCN2CCN(c3nc(N)nc(-c4cc(Cl)ccc4Cl)n3)CC2)cc1`, the melting point is 148 to 150 °C.

On to `COc1ccc2[nH]cc(/C(C#N)=C/c3ccc(Cl)nc3)c2c1`, for which the melting point was found to be 184 °C.

`COc1ccc2cnc(=O)[nH]c2c1C1CCCC1` returned a melting point of 201 to 204 °C.

Regarding `CCOC(=O)C1=C(COCCNC(N)=S)NC(C)=C(C(=O)OC)C1c1cccc(Cl)c1Cl` (configuration not stated), the melting point stood at 198 °C.

`CC(=O)NC(=CC(=O)[C@H](Cc1ccccc1)N(Cc1ccccc1)Cc1ccccc1)Cc1ccccc1` returned a melting point of 95 to 96 °C.

`CCCCN1C(=O)CCC(C)(C)c2cc(C(=O)Nc3ccc(C(=O)O)cc3)ccc21` displayed a melting point of 269 °C.

On to `CC(COc1c(-c2ccccc2)c(=O)oc2c(Cl)cccc12)CN1CCOCC1` (configuration not stated), for which the melting point lay within 120 to 122 °C.

`Clc1ccc2nc(CN3CCN(c4ccccc4)CC3)cn2c1` had a melting point of 128 to 130 °C.

For `COc1cc(OC)nc(NC(=O)NS(=O)(=O)c2c([Si](C)(C)C)ccc3c2S(=O)(=O)C(C)C3)n1` (configuration not stated), the melting point was 188 to 190 °C.

The molecule `N#Cc1cccc(C2=Nc3ccc(-c4cc(F)ccc4F)cc3NC(=O)C2)c1` gave a melting point of 247 °C.

`CS(=O)(=O)c1ccc(-c2cnn(-c3ccc(F)cc3)c(=O)c2COc2ccccc2)cc1` displayed a melting point of 42 to 75 °C.

As to `O=C(c1ccccc1)c1ccc(OCCCCCCBr)c(Cl)c1`, the melting point is 58 °C.

Turning to `O=C1C2=C(CCCC2)C(=O)N1c1cc(O)ccc1F`, the melting point came to 165 °C.

As for `COC(=O)C1=C(C)NC(C)=C(C(=O)OCCCOc2ccc(CCOC3CCCCO3)cc2)C1c1cccc([N+](=O)[O-])c1` (configuration not stated), the melting point is below 50 °C.

`COC(=O)[C@H](CC(C)C)NC(=O)[C@@H](CCSC)NC(=O)OC(C)(C)C` showed a melting point of 61 to 64 °C.

Molecule `CC(=O)OCC(=O)C1(OC(C)=O)CCC2C3CC(C)C4=CC(=O)C=CC4(C)C3C(O)CC21C` (configuration not stated) had a melting point of 216 °C.

For the molecule `O=C(O)c1cc(Cl)c(Oc2ccc(O)cc2)c(Cl)c1`, the melting point was in the range of 163 to 165 °C.
